# Measured values from paper PMC11466185, “Mechanisms and efficacy of small molecule latency-promoting agents to inhibit HIV reactivation ex vivo” (JCI Insight, 2024).
# Where “and” joins values, the source holds several entries; their conditions need not be identical. Identical values can stand only once.
# Tests used:
# [1] = system: HIV transcripts (TAR, LLTR, Pol, PolyA, TatRev); assay: Latency reversal assay: cell-associated HIV transcripts (RT-ddPCR) 24 hours after anti-CD3/CD28 activation of PBMCs from ART-suppressed PWH; assay type: cell-based; parameters: key to TatRev: % of activated DMSO control, normalized to 1 μg total RNA; settings: for Pol HIV transcripts (DMSO αCD3/28 = 100) / PolyA HIV transcripts (DMSO αCD3/28 = 100) / TatRev HIV transcripts (DMSO αCD3/28 = 100): αCD3/28-activated, ruxolitinib 4μM, triptolide 25-50nM, alvocidib 40nM, dinaciclib 8nM, AZD4573 8nM, quercetin 5μM, pladienolide B 10nM, isoginkgetin 25μM, herboxidiene 5nM, KRIBB11 2.5μM, tanespimycin 5μM, mithramycin A 25nM; for PolyA/LLTR / TatRev/PolyA / LLTR/TAR: DMSO+CD3/28 = 1, Fig 3B, C and D; for PolyA / TatRev: DMSO+αCD3/28 = 100, Fig 3A
# In short: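 PBMCs from ART-suppressed people with HIV (6 × 10^6 cells/well) treated with drug in DMSO, activated with anti-CD3/CD28 beads with antiretrovirals, harvested after 24 hours. TAR, LLTR, Pol, PolyA and TatRev transcripts measured by RT-ddPCR, normalized to 1 μg total RNA, expressed as % of activated DMSO control.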
# PBMCs = assay: Total number of live cells (proliferation) by trypan blue staining at day 6; assay type: cell-based, human; settings: for Total live cell numbers (proliferation) compared with activated DMSO (in words) / Total number of live cells (Fig 6A): day 6; for Total live cell numbers (proliferation) compared with activated DMSO (in words): Figure 6A; for Fig 6B: total live cells relative to DMSO+CD3/28: DMSO+CD3/28 = 100
# In short: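 PBMCs with CD3/CD28 activating beads (except unactivated DMSO control) and compound for 6 days. Live cells counted by trypan blue and expressed as % of activated DMSO; Wilcoxon signed-rank test.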
# [2] = 100nM, 24 h after αCD3/28 activation, each column one participant
# [3] = 10/100nM, 24 h after αCD3/28 activation, each column one participant
molecule,measurement,setting,value
pladienolide B,LLTR HIV transcripts (DMSO+αCD3/28 = 100),[1]; [2],105.44 and 112.17
same,Pol HIV transcripts (DMSO+αCD3/28 = 100),[1]; [2],61.14 and 46.29
same,TatRev HIV transcripts (DMSO+αCD3/28 = 100),[1]; [2],0
same,LLTR HIV transcripts (DMSO+αCD3/28 = 100),[1]; [3],105.44 and 112.17 and 22.15 and 34.23 and 14.5 and 7.78 and 32.23
same,Pol HIV transcripts (DMSO+αCD3/28 = 100),[1]; [3],61.14 and 46.29 and 2.85 and 58.11 and 12.19 and 5.03 and 29.65
same,PolyA HIV transcripts (DMSO+αCD3/28 = 100),[1]; [3],25.19 and 8
same,TAR HIV transcripts (DMSO+αCD3/28 = 100),[1]; [3],70.83 and 56.32 and 43.76 and 138.46
same,TatRev HIV transcripts (DMSO+αCD3/28 = 100),[1]; [3],0 (4×) and 2.98 and 6.21 and 11.47
same,"HIV transcriptional completion, ratio PolyA/LLTR","[1]; 24 hours, compared with activated DMSO, Figure 3C",reduced
same,"HIV multiple splicing, ratio TatRev/PolyA","[1]; 24 hours, compared with activated DMSO, Figure 3D",reduce HIV multiple splicing
same,Reduction of multiply spliced or completed HIV transcripts in drug screen (selection as candidate LPA),"[1]; initial screening, 2 participants, 24 hours",more than 50%
same,"Completed (PolyA) HIV transcripts, median relative to activated DMSO, initial screening","[1]; initial screening, 2 participants, 24 hours, Supplemental Figure 2",17%
same,Pol HIV transcripts (DMSO αCD3/28 = 100),[1]; participant 2027,56.14
same,PolyA HIV transcripts (DMSO αCD3/28 = 100),[1]; participant 2027,45.13
same,TatRev HIV transcripts (DMSO αCD3/28 = 100),[1]; participant 2027,0
same,Pol HIV transcripts (DMSO αCD3/28 = 100),[1]; participant 2147a,74.51
same,PolyA HIV transcripts (DMSO αCD3/28 = 100),[1]; participant 2147a,38.34
same,TatRev HIV transcripts (DMSO αCD3/28 = 100),[1]; participant 2147a,22.95
same,Pol HIV transcripts (DMSO αCD3/28 = 100),[1]; participant 2161,44.19
same,PolyA HIV transcripts (DMSO αCD3/28 = 100),[1]; participant 2161,152.38
same,TatRev HIV transcripts (DMSO αCD3/28 = 100),[1]; participant 2161,381.82
same,PolyA HIV transcripts (DMSO αCD3/28 = 100),[1]; participant 2461,53.85
same,Pol HIV transcripts (DMSO αCD3/28 = 100),[1]; participant 2747,21.03
same,PolyA HIV transcripts (DMSO αCD3/28 = 100),[1]; participant 2747,65.33
same,TatRev HIV transcripts (DMSO αCD3/28 = 100),[1]; participant 2747,0
same,Pol HIV transcripts (DMSO αCD3/28 = 100),[1]; participant 2750,212.24
same,PolyA HIV transcripts (DMSO αCD3/28 = 100),[1]; participant 2750,74.85
same,TatRev HIV transcripts (DMSO αCD3/28 = 100),[1]; participant 2750,155
same,Multiply spliced HIV transcripts (TatRev) (Fig 1B),"[1]; study participant 150a, 24 hours",0 % of activated DMSO
same,PolyA/LLTR,[1]; study participant 150a,0.2389
same,TatRev/PolyA,[1]; study participant 150a,0
same,PolyA,[1]; study participant 150a,25.19
same,TatRev,[1]; study participant 150a,0
same,Multiply spliced HIV transcripts (TatRev) (Fig 1B),"[1]; study participant 152, 24 hours",0 % of activated DMSO
same,PolyA/LLTR,[1]; study participant 152,0.07129
same,TatRev/PolyA,[1]; study participant 152,0
same,PolyA,[1]; study participant 152,8
same,TatRev,[1]; study participant 152,0
same,PolyA/LLTR,[1]; study participant 163,0.2589
same,TatRev/PolyA,[1]; study participant 163,0
same,PolyA,[1]; study participant 163,5.73
same,TatRev,[1]; study participant 163,0
same,LLTR/TAR,[1]; study participant 1379,0.1778
same,PolyA/LLTR,[1]; study participant 1379,0.4115
same,TatRev/PolyA,[1]; study participant 1379,0
same,PolyA,[1]; study participant 1379,3.2
same,TatRev,[1]; study participant 1379,0
same,LLTR/TAR,[1]; study participant 2147b,0.4833
same,PolyA/LLTR,[1]; study participant 2147b,0.2849
same,TatRev/PolyA,[1]; study participant 2147b,0.3058
same,PolyA,[1]; study participant 2147b,9.75
same,TatRev,[1]; study participant 2147b,2.98
same,LLTR/TAR,[1]; study participant 2256,0.2575
same,PolyA/LLTR,[1]; study participant 2256,0.2751
same,TatRev/PolyA,[1]; study participant 2256,1.556
same,PolyA,[1]; study participant 2256,3.99
same,TatRev,[1]; study participant 2256,6.21
same,LLTR/TAR,[1]; study participant 5557,0.2328
same,PolyA/LLTR,[1]; study participant 5557,0.5006
same,TatRev/PolyA,[1]; study participant 5557,0.7112
same,PolyA,[1]; study participant 5557,16.13
same,TatRev,[1]; study participant 5557,11.47
same,Total live cell numbers (proliferation) compared with activated DMSO (in words),PBMCs,significantly lower
same,Fig 6B: total live cells relative to DMSO+CD3/28,PBMCs; participant 2027,130.18
same,Fig 6B: total live cells relative to DMSO+CD3/28,PBMCs; participant 2147a,87.14
same,Fig 6B: total live cells relative to DMSO+CD3/28,PBMCs; participant 2147b,432.65
same,Fig 6B: total live cells relative to DMSO+CD3/28,PBMCs; participant 2161,52.54
same,Fig 6B: total live cells relative to DMSO+CD3/28,PBMCs; participant 2461,69.04
same,Fig 6B: total live cells relative to DMSO+CD3/28,PBMCs; participant 2747,68.1
same,Total number of live cells (Fig 6A),PBMCs; study participant 150a,26.64 % of activated DMSO
same,Total number of live cells (Fig 6A),PBMCs; study participant 156,40.97 % of activated DMSO
same,Total number of live cells (Fig 6A),PBMCs; study participant 163,70.82 % of activated DMSO
same,Total number of live cells (Fig 6A),PBMCs; study participant 2027,28.6 % of activated DMSO
same,Total number of live cells (Fig 6A),PBMCs; study participant 2147a,113.84 % of activated DMSO
same,Total number of live cells (Fig 6A),PBMCs; study participant 2147b,53.49 % of activated DMSO
same,Total number of live cells (Fig 6A),PBMCs; study participant 2161,58.44 % of activated DMSO
same,Total number of live cells (Fig 6A),PBMCs; study participant 2461,29.57 % of activated DMSO
same,Total number of live cells (Fig 6A),PBMCs; study participant 2747,105.45 % of activated DMSO
same,Total number of live cells (Fig 6A),PBMCs; study participant 2750,17.9 % of activated DMSO
N#CC[C@H](C1CCCC1)n1cc(-c2ncnc3[nH]ccc23)cn1 [ruxolitinib],mrna remaining at 4 µM,"[1]; Human immunodeficiency virus 1, PBMC, 24 h, 4μM, 24 h after αCD3/28 activation, each column one participant, read-out: TAR HIV transcripts (DMSO+αCD3/28 = 100)",34.5%
same,Total live cell numbers (proliferation) compared with activated DMSO (in words),PBMCs,significantly lower
